Measured values taken from ChEMBL document CHEMBL1139548, “Cyclic ADP-ribose analogues containing the methylenebisphosphonate linkage: effect of pyrophosphate modifications on Ca2+ release activity” (J Med Chem, 2005).
pEC50: −log10 of the molar value.

Assay: Effective concentration against release of [Ca2+] ions from sea urchin egg
Type: functional

Compound	pEC50
N=c1c2ncn3c2ccn1C1OC(COP(=O)(O)CP(=O)(O)OC[C@H]2OC3[C@H](O)C2O)[C@@H](O)[C@H]1O (single isomer, unassigned)	6.52
N=c1c2ncn3c2ncn1C1OC(COP(=O)(O)CP(=O)(O)OC[C@H]2OC3[C@H](O)C2O)[C@@H](O)[C@H]1O (single isomer, unassigned)	6.07
